Measured values taken from the supplement of paper PMC10307832.

Tests used:
Experiment in all cases: relative viability (nuclei count vs DMSO), 5 days (fraction); higher = more cells survive
[1] = test system: EPLC-272H
In short: (§1)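 Values are medians from duplicate plates. Each reflects relative viability, defined as the nuclei count of treated wells over that of vehicle wells. Lung cancer cell lines in 1536-well plates were pin-tool dosed one day after seeding with one drug alone or with a fixed anchor-drug dose plus five library-drug doses (not always all listed) in √10 steps, then fixed, stained and imaged at 4× after 5 days.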

[2] = test system: NCI-H1666
In short: as §1

[3] = test system: NCI-H1975
In short: as §1

[4] = test system: HCC-15
In short: as §1

[5] = test system: EMC-BAC-2
In short: as §1

[6] = test system: NCI-H358
In short: as §1

[7] = test system: LXF-289
In short: as §1

[8] = test system: NCI-H2023
In short: as §1

[9] = test system: UMC-11
In short: as §1

[10] = test system: COR-L 105
In short: as §1

[11] = test system: HCC-78
In short: as §1

[12] = test system: NCI-H2126
In short: as §1

[13] = test system: NCI-H441
In short: as §1

[14] = test system: ABC-1
In short: as §1

[15] = test system: NCI-H2085
In short: as §1

[16] = test system: NCI-H3122
In short: as §1

[17] = test system: NCI-H322M
In short: as §1

[18] = test system: NCI-H1755
In short: as §1

[19] = test system: CAL-12T
In short: as §1

[20] = test system: NCI-H1915
In short: as §1

[21] = test system: ChaGo-K-1
In short: as §1

[22] = test system: HOP-62
In short: as §1

COc1cc2nccc(Oc3ccc(NC(=O)Nc4cc(C)on4)c(Cl)c3)c2cc1OC [Tivozanib] + COc1cccc2cc(-c3nc([C@H]4CC[C@H](C(=O)O)CC4)n4ncnc(N)c34)[nH]c12 [OSI-027] (partner 0.5 µM)
relative viability ([1]; first compound 0.005 µM): 0.268
relative viability ([1]; first compound 0.01581 µM): 0.318
relative viability ([1]; first compound 0.05 µM): 0.299
relative viability ([1]; first compound 0.1581 µM): 0.244
relative viability ([1]; first compound 0.5 µM): 0.294
relative viability ([2]; first compound 0.005 µM): 0.927
relative viability ([2]; first compound 0.01581 µM): 0.856
relative viability ([2]; first compound 0.05 µM): 0.843
relative viability ([2]; first compound 0.1581 µM): 0.799
relative viability ([2]; first compound 0.5 µM): 0.807
relative viability ([3]; first compound 0.005 µM): 0.673
relative viability ([3]; first compound 0.01581 µM): 0.634
relative viability ([3]; first compound 0.05 µM): 0.709
relative viability ([3]; first compound 0.1581 µM): 0.565
relative viability ([3]; first compound 0.5 µM): 0.475
relative viability ([4]; first compound 0.005 µM): 0.547
relative viability ([4]; first compound 0.01581 µM): 0.672
relative viability ([4]; first compound 0.05 µM): 0.711
relative viability ([4]; first compound 0.1581 µM): 0.571
relative viability ([4]; first compound 0.5 µM): 0.61
relative viability ([5]; first compound 0.005 µM): 0.372
relative viability ([5]; first compound 0.01581 µM): 0.385
relative viability ([5]; first compound 0.05 µM): 0.38
relative viability ([5]; first compound 0.1581 µM): 0.279
relative viability ([5]; first compound 0.5 µM): 0.334
relative viability ([6]; first compound 0.005 µM): 0.751
relative viability ([6]; first compound 0.01581 µM): 0.776
relative viability ([6]; first compound 0.05 µM): 0.674
relative viability ([6]; first compound 0.1581 µM): 0.332
relative viability ([6]; first compound 0.5 µM): 0.727
relative viability ([7]; first compound 0.005 µM): 0.812
relative viability ([7]; first compound 0.01581 µM): 0.786
relative viability ([7]; first compound 0.05 µM): 0.845
relative viability ([7]; first compound 0.1581 µM): 0.638
relative viability ([7]; first compound 0.5 µM): 0.618
relative viability ([8]; first compound 0.005 µM): 0.393
relative viability ([8]; first compound 0.01581 µM): 0.386
relative viability ([8]; first compound 0.05 µM): 0.381
relative viability ([8]; first compound 0.1581 µM): 0.272
relative viability ([8]; first compound 0.5 µM): 0.324
relative viability ([9]; first compound 0.005 µM): 0.491
relative viability ([9]; first compound 0.01581 µM): 0.451
relative viability ([9]; first compound 0.05 µM): 0.536
relative viability ([9]; first compound 0.5 µM): 0.426
relative viability ([10]; first compound 0.005 µM): 0.707
relative viability ([10]; first compound 0.01581 µM): 0.748
relative viability ([10]; first compound 0.05 µM): 0.719
relative viability ([10]; first compound 0.1581 µM): 0.525
relative viability ([10]; first compound 0.5 µM): 0.762
relative viability ([11]; first compound 0.005 µM): 0.326
relative viability ([11]; first compound 0.01581 µM): 0.369
relative viability ([11]; first compound 0.05 µM): 0.386
relative viability ([11]; first compound 0.1581 µM): 0.31
relative viability ([11]; first compound 0.5 µM): 0.316
relative viability ([12]; first compound 0.005 µM): 0.655
relative viability ([12]; first compound 0.01581 µM): 0.701
relative viability ([12]; first compound 0.05 µM): 0.776
relative viability ([12]; first compound 0.5 µM): 0.691
relative viability ([13]; first compound 0.005 µM): 0.453
relative viability ([13]; first compound 0.01581 µM): 0.506
relative viability ([13]; first compound 0.05 µM): 0.78
relative viability ([13]; first compound 0.1581 µM): 0.563
relative viability ([13]; first compound 0.5 µM): 0.344
relative viability ([14]; first compound 0.005 µM): 0.456
relative viability ([14]; first compound 0.01581 µM): 0.509
relative viability ([14]; first compound 0.05 µM): 0.462
relative viability ([14]; first compound 0.1581 µM): 0.359
relative viability ([14]; first compound 0.5 µM): 0.395
relative viability ([15]; first compound 0.005 µM): 0.757
relative viability ([15]; first compound 0.01581 µM): 0.66
relative viability ([15]; first compound 0.05 µM): 0.817
relative viability ([15]; first compound 0.1581 µM): 0.382
relative viability ([15]; first compound 0.5 µM): 0.528
relative viability ([16]; first compound 0.005 µM): 0.971
relative viability ([16]; first compound 0.01581 µM): 0.98
relative viability ([16]; first compound 0.05 µM): 1.05
relative viability ([16]; first compound 0.1581 µM): 0.859
relative viability ([16]; first compound 0.5 µM): 0.925
relative viability ([17]; first compound 0.005 µM): 0.513
relative viability ([17]; first compound 0.01581 µM): 0.603
relative viability ([17]; first compound 0.05 µM): 0.545
relative viability ([17]; first compound 0.1581 µM): 0.455
relative viability ([17]; first compound 0.5 µM): 0.461
relative viability ([18]; first compound 0.005 µM): 0.685
relative viability ([18]; first compound 0.01581 µM): 0.77
relative viability ([18]; first compound 0.05 µM): 0.733
relative viability ([18]; first compound 0.1581 µM): 0.646
relative viability ([18]; first compound 0.5 µM): 0.612
relative viability ([19]; first compound 0.005 µM): 0.583
relative viability ([19]; first compound 0.01581 µM): 0.737
relative viability ([19]; first compound 0.05 µM): 0.762
relative viability ([19]; first compound 0.1581 µM): 0.364
relative viability ([19]; first compound 0.5 µM): 0.418
relative viability ([20]; first compound 0.005 µM): 0.594
relative viability ([20]; first compound 0.01581 µM): 0.604
relative viability ([20]; first compound 0.05 µM): 0.653
relative viability ([20]; first compound 0.1581 µM): 0.523
relative viability ([20]; first compound 0.5 µM): 0.49
relative viability ([21]; first compound 0.005 µM): 0.601
relative viability ([21]; first compound 0.01581 µM): 0.555
relative viability ([21]; first compound 0.05 µM): 0.605
relative viability ([21]; first compound 0.1581 µM): 0.552
relative viability ([21]; first compound 0.5 µM): 0.432
relative viability ([22]; first compound 0.005 µM): 0.838
relative viability ([22]; first compound 0.01581 µM): 0.829
relative viability ([22]; first compound 0.05 µM): 0.798
relative viability ([22]; first compound 0.1581 µM): 0.587
relative viability ([22]; first compound 0.5 µM): 0.817
